# In patent publication US11014896B2, “TRPA1 and TRPV4 inhibitors and methods of using the same for organ-specific inflammation and itch” (Duke University, priority 2014, dated 2021):
# Biological target: T1, human TRPV3 (Homo sapiens, UniProt Q8NET8)
# T1 construct: expressed in transfected cells; host or cells: N2a cells
# T1 sequence (Q8NET8 1-790): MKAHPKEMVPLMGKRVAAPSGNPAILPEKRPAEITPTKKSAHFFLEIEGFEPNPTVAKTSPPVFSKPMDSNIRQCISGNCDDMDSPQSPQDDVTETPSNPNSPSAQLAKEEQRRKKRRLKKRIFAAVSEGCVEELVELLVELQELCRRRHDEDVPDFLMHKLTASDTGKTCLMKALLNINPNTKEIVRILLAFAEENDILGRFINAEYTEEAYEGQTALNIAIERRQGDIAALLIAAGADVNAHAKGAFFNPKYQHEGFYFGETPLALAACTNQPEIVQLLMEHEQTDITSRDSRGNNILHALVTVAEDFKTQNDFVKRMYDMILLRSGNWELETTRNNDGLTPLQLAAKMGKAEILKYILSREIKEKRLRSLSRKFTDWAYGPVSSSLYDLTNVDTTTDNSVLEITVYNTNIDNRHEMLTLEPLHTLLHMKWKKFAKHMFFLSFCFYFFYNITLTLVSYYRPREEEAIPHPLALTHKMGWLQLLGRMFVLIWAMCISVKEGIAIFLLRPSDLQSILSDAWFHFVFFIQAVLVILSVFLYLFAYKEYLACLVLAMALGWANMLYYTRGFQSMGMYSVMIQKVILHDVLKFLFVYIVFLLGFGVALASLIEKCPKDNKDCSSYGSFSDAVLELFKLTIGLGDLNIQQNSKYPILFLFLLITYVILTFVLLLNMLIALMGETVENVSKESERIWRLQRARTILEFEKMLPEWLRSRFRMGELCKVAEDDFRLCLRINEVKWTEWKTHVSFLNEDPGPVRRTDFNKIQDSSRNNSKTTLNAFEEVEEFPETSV
# Experiment: Ca2+ signal in N2a cells transfected with human TRPV3
# Type: cell-based
# Details: stimulation with camphor
# Experimental: Compounds were tested for their effect on TRPV1, TRPV2, and TRPV3. Methods were similar to those described in Example 15. Briefly, N2a cells were transfected with human TRPV1, TRPV2, or TRPV3. eGFP-transfection was used as control. For specific stimulation of TRPV1, 5 μM capsaicin was used. For stimulation of TRPV2, hypotonicity (260 mosmol/L) was used, based on previous reports of TRPV2 being osmotically responsive. N2a cells were not responsive to hypotonicity, and neither were control-transfected cells. For TRPV3-expressing cells, camphor (20% of a commercially available stock solution) was used. […] Stimulation and control protocols were applied as for TRPA1-expressing N2a cells as detailed above in Example 15.
smiles,measurement,value
CN(CCc1ccc(Nc2nc(-c3ccccc3)cs2)cc1)Cc1ccccc1 [Compound 16-8],Ca2+ transience on TRPV3 stimulation,not affected
